According to patent publication US8912137B2, “Method for increasing natriuresis or diuresis by isoforms of brain natriuretic peptide” (Mayo Foundation for Medical Education and Research, priority 2003, dated 2014):

How the values were obtained:
normal dogs = test: Intrarenal arterial infusion in normal dog; assay type: in vivo; conditions: intrarenal arterial infusion 0.03 ng/kg/min
Description: To determine the physiological effects of BNP-3, the synthesized peptide was delivered via a direct intrarenal arterial infusion (0.03 ng/kg/min) in normal dogs. Physiologic assessment was performed following a 15 minute run-in period. […] Both of these increases normalized during a washout period.

[1] = system: Human umbilical vascular endothelial cells (HUVEC); test: Stimulation of intracellular cGMP production in HUVEC (BIOTRACK cGMP enzyme immunoassay); assay type: cell-based; conditions: 30 minutes incubation, 0.5 mM IBXM
Description: Human umbilical vascular endothelial cells (HUVEC) were cultured in 96-well plates using endothelial cell medium (EGM™-2) supplemented with the components provided by the EGM™-2 BulletKit (CC-3162) (Clonetics, East Rutherford, N.J.). After cells reached about 80% confluency, the plates were washed with phosphate-buffered saline ([…], SEQ ID NO:35) dissolved in EBM-2 that contained supplements and 0.5 mM IBXM. After incubation, the culture medium was aspirated, and the cells were assayed for intracellular cGMP production using the BIOTRACK cGMP enzyme immunoassay kit (Amersham Pharmacia Biotech). The amount of cGMP was calculated according the standard curve that was generated from parallel reactions within the same experiment.

[2] = system: carotid arteries from New Zealand White Rabbits; test: Vasoactivity in organ chamber, phenylephrine pre-contracted carotid artery rings; conditions: rabbit carotid rings
Description: Vasoactivity was assessed in an organ chamber using carotid arteries from New Zealand White Rabbits. Following euthanization, carotids were immediately immersed in cold Krebs solution. Arterial rings ˜4 mm in length (n=6) were dissected, connected to isometric force displacement transducers, and suspended in organ chambers filled with 25 mL of Krebs (94% O2, 6% CO2). Rings were equilibrated for 1 hour at 37° C. and then incrementally stretched to 3 g. Viability and maximum contraction was determined with 60 mM KCl. After 3 washes with Krebs solution and further equilibration, arteries were pre-contracted with phenylephrine in a titrated fashion to achieve ˜80% stable maximal contraction. To study vasoactivity, BNP3 (final cone 10^−10 to 10^−7 M) or vehicle was added to the organ bath in a cumulative manner. Following three further washes and equilibration, the arteries were re-contracted and viability was confirmed by assessment of endothelium independent responses with incremental doses of sodium nitroprusside (10^−9 to 10^−5 M), an exogenous NO donor.

[3] = cited from earlier work

Substance	increased urinary flow (normal dogs)	plasma cGMP (normal dogs)	urinary excretion of sodium (normal dogs)	cGMP ([1]; BNP3 10^−8 M) [fmol/well]	cGMP ([1]; BNP3 10^−9 M) [fmol/well]	cGMP ([1]; BNP3 10^−10 M) [fmol/well]	concentration at which vasorelaxation began ([2]; cumulative addition 10^−10 to 10^−7 M)	complete relaxation ([2]; dose 10^−7M) [%]	complete relaxation ([2]; dose 10^−8M) [%]	effect on heart rate ([3]; in vivo)	pro-arrhythmic effect ([3]; in vivo)	cardiac index ([3]; intravenous therapy)	pulmonary capillary wedge pressure ([3]; intravenous therapy)	systemic vascular resistance ([3]; intravenous therapy)
SPKMVQGSGCFGRKMDRISSSSGLGCKVVQKENQTFPPGFL (listed as Homo sapiens) [BNP3]	6-8 fold	elevation of plasma cGMP	increased urinary excretion of sodium	26	18	1	10^−9 M	~95	~60					
recombinant BNP: recombinant brain natriuretic peptide, 32 amino acid peptide with a ring structure (SEQ ID NO:16)										no effect	not pro-arrhythmic	increases	significantly decreases	significantly decreases
